Laboratory results published in US6610733B2, “Optically active chroman and thiochroman derivatives” (Chugai Seiyaku Kabushiki Kaisha, priority 1999, dated 2003).

Test system: estradiol-induced increase in uterine weight
Test: Anti-estrogenic activity (oral administration): inhibition of estradiol-induced increase in uterine weight in ovariectomized mice
Type: in vivo, mice (ICR)
Conditions: ovariectomized mice given 17β-estradiol-benzoate 0.1 μg/mouse s.c. for 3 days, test compound 10 mg/kg p.o., once a day, uterine weight 24 hours after last administration
Method: Test compounds were assayed for their oral anti-estrogenic activity in the following manner. In this experiment, the compounds prepared in Examples 2 and 3 were used as test compounds and the corresponding racemic mixture (10-[(3RS,4RS)-7-hydroxy-3-(4-hydroxyphenyl)-3-methylthiochroman-4-yl]-2-(4,4,5,5,5-pentafluoropentyl)decanoic acid was used as a control compound. This control compound was synthesized according to Reaction Schemes 1 to 7 mentioned above.
In this experiment, each of the test and control compounds was suspended in 5% arabic gum solution and orally administered for 3 days on a once-a-day basis. After 24 hours from the last administration, the test animals were sacrificed and the uteri were removed and weighed.

Question: How did the “Inhibition (%)” value turn out when `C[C@@]1(c2ccc(O)cc2)CSc2cc(O)ccc2[C@@H]1CCCCCCCCC(CCCC(F)(F)C(F)(F)F)C(=O)O` (mixture of isomers) [10-[(3RS,4RS)-7-hydroxy-3-(4-hydroxyphenyl)-3-methylthiochroman-4-yl]-2-(4,4,5,5,5-pentafluoropentyl)decanoic acid, reference compound] was run?
Answer: The value was 75%.

Question: `C[C@]1(c2ccc(O)cc2)CSc2cc(O)ccc2[C@H]1CCCCCCCCC(CCCC(F)(F)C(F)(F)F)C(=O)O` (stereo partly drawn) [Example 3, 10-[(3S,4S)-7-Hydroxy-3-(4-hydroxyphenyl)-3-methylthiochroman-4-yl]-2-(4,4,5,5,5-pentafluoropentyl)decanoic Acid] was tested. Which “Inhibition (%)” value did it give?
Answer: The value was 69%.

Question: Which “Inhibition (%)” value does the source give for `C[C@@]1(c2ccc(O)cc2)CSc2cc(O)ccc2[C@@H]1CCCCCCCCC(CCCC(F)(F)C(F)(F)F)C(=O)O` (stereo partly drawn) [Example 2, 10-[(3R,4R)-7-Hydroxy-3-(4-hydroxyphenyl)-3-methylthiochroman-4-yl]-2-(4,4,5,5,5-pentafluoropentyl)decanoic Acid] here?
Answer: Its value is 90%.

Question: How did the “Inhibition (%)” value (10 mg/kg) turn out when `C[C@@]1(c2ccc(O)cc2)CSc2cc(O)ccc2[C@@H]1CCCCCCCCC(CCCC(F)(F)C(F)(F)F)C(=O)O` (single isomer, unassigned) [Example 10, Peak 2] was run?
Answer: The value was 78%.

Question: Which “Inhibition (%)” value (10 mg/kg) does the source give for `C[C@@]1(c2ccc(O)cc2)CSc2cc(O)ccc2[C@@H]1CCCCCCCCC(CCCC(F)(F)C(F)(F)F)C(=O)O` (single isomer, unassigned) [Example 10, Peak 1] here?
Answer: Its value is 87%.
